From ChEMBL document CHEMBL1122170, “Angiotensin converting enzyme inhibitors: modifications of a tripeptide analogue” (J Med Chem, 1982)

Target: Angiotensin-converting enzyme (Cavia porcellus)
Assay: Concentration required for 50% inhibition of Angiotensin I converting enzyme

| SMILES | IC50 [nM] |
| --- | --- |
| O=C(NC(Cc1ccccc1)C(=O)CCCC(=O)N1CCC[C@@H]1C(=O)O)c1ccccc1 (stereo not given in full) | 42 |
| O=C(NC(Cc1ccccc1)C(=O)CSCC(=O)N1CCC[C@@H]1C(=O)O)c1ccccc1 (stereo not given in full) | 12 |
| O=C(NC(Cc1ccccc1)C(=O)CNCC(=O)N1CCC[C@@H]1C(=O)O)c1ccccc1 (stereo not given in full) | 960 |
| O=C(NC(Cc1ccccc1)C(=O)COCC(=O)N1CCC[C@@H]1C(=O)O)c1ccccc1 (stereo not given in full) | 4.4 |
| Cc1ccc(S(=O)(=O)N(CC(=O)C(Cc2ccccc2)NC(=O)c2ccccc2)CC(=O)N2CCC[C@@H]2C(=O)O)cc1 (stereo not given in full) | 22000 |
